These results are taken from patent US20250034186A1, “ANTIVIRAL COMPOUNDS” (priority 2020, published 2025).

The test system of one series is DENV2 replicon. Nature of the series: DENV-2 Huh-7 Rep EC50. The conditions noted are these: for EC50: Dengue virus, Huh-7 cells containing DENV2 replicon, 48 hours, read-out: DENV Huh7 REP EC50. The class given is cell-based, dengue virus. As to the method:
In 384 well plates (Greiner, Cat #781091), compounds were acoustically transferred at 200 nl per well in a 8 compound (4 replicates) or 40 compound dose response format (3 replicates). For all plates tested, Balapiravir, GS-5734 and NITD008 were included as positive inhibition controls alongside 0% inhibition, DMSO-only negative control wells. Following compound addition, Huh-7 cells containing the DENV2 replicon construct were harvested following standard cell culture procedures and were adjusted to a concentration of 1.25E5 cells/mL in cell culture media composed of cDMEM without genticin. 40 μL of the cell stock was then added to each well for a final cell density of 5,000 cells/well. Cell and compound mixtures were incubated at 37° C./5% CO2 for 48 hours. Prior to harvesting cells, EnduRen Live Cell Substrate (Promega, Cat #E6481) was prepared by suspending 3.4 mg into 100 uL of DMSO to generate a 60 mM stock solution. The stock solution was then diluted 1:200 in pre-warmed cDMEM and 10 uL of this diluted solution was added to each well of the 384 well plates. Plates were then centrifuged at 500 rpm briefly and were placed on a plate shaker for 2 min. Following mixing, plates were incubated at […] for 1.5 hours prior to measuring luminescence on an Envision luminometer.

The next series in a line: Huh-7 cytotoxicity assay. The series is classed as cell-based. The conditions noted are these: human, Huh7 cells. The procedure: Compounds were tested in a high-throughput 384-well assay format for cytotoxicity in Huh7 cells (Hepatocarcinoma cell line). Cells were diluted in media (DMEM (15-018-CM), 10% FBS, 1% NEAA, 1% PSG) to 16.6K cells/mL and plated at 90 uL/well into 384 well poly-D-lysine coated assay plates and placed in an incubator at 37° C. and 5% CO2. Compounds were serially diluted (1:3) in 100% DMSO in 384-well plates in quadruplicate. DMSO and 2 mM Puromycin were included as negative and positive controls respectively. 24 hours after cell plating, a 384 channel pipettor was used to transfer 0.4 uL from the compound plate to the assay plate. Assay plates were returned to the incubator. After 5 days, assay plates were washed with 80 uL/well of PBS before addition of 20 μL of Cell Titer Glo. Assay plates were read on the Envision plate reader. […] CC50 values were calculated in Accord (on-line tool) using a one-site dose-response model to generate sigmoidal curve fits.

In a further series the test system is RSV A strain A2. The series is described as follows: RSV HAE EC50, intracellular RSV RNA by real-time PCR. The settings on record: for EC50: human respiratory syncytial virus, 72 h, RSV A2 in HAE cells, air-liquid interface, 3 days, RSV RNA. The class given is cell-based. As to the method: HAE cells are cultured at the air-liquid interface and have an apical side that is exposed to the air and a basal side that is in contact with the medium. Prior to experimentation, HAE were removed from their agar-based shipping packaging and were acclimated to 37° C./5% CO2 overnight in 1 ml of HAE Assay medium (AIR-100-MM, Mattek Corp). HAE were prepared for infection by washing the apical surface twice with 400 μL of PBS (either utilizing direct pipetting methods or by running each transwell through a trough containing PBS) to remove the mucus layer. Apical chambers were drained of PBS and tapped gently onto absorbent material to remove as much PBS as possible. After washing, the cells were transferred to fresh HAE maintenance media containing 4-fold serially diluted compound, delivered to the basal side of the cell monolayer, and apically infected with 100 μL of a 1:600 dilution of RSV A strain A2 1000× stock (ABI, Columbia, MD, Cat #10-124-000) in HAE assay medium for 3 hours at 37° C. in 5% CO2. The virus inoculum was removed and the apical surface of the cells was washed 3 times with PBS using either method previously described. The cells were then cultured in the presence of compound for 3 days at 37° C. Following the incubation, total RNA was extracted from the HAE cells using a MagMAX-96 Viral RNA isolation kit (Applied Biosystems, Foster City, CA, Cat #AM1836) and intracellular RSV RNA was quantified by real-time PCR. Approximately 25 ng of purified RNA was added to a PCR reaction mixture that contained 0.9 μM RSV N Forward and RSV N Reverse primers, 0.2 μM RSV N Probe and 1× Taqman RNA-to-Ct 1-Step Kit (Applied Biosystems, Foster City, CA, Cat #4392938). RNA levels were normalized using a Taqman GAPDH control primer set (Applied Biosystems, Foster City, CA, Cat #402869). Real-Time PCR Primers and Probe Used in the RSV A2 HAE Antiviral Assay: RSV N Forward […] (SEQ ID NO: 2), RSV N Reverse […] (SEQ ID NO: 3), RSV N Probe FAM-[…]-BHQ (SEQ ID NO: 4).
A general note: In qPCR the cycle at which signal appears reflects the starting amount.

Another series is described as follows: PRPT cytotoxicity assay. The class given is cell-based. The conditions noted are these: human, primary renal proximal tubule epithelial cells (PRPTEC); 5-day incubation. The procedure:
The PRPT cytotoxicity assays on the compound of Formula I and compounds 1, 2 and 6 were conducted using the following protocol.
Cryopreserved human primary renal proximal tubule epithelial cells (PRPTEC), were obtained from LifeLine Cell Technology (Frederick, MD, Cat #FC-0013) and isolated from the tissue of human kidney. The cells were cultured with RenaLife completed medium (LifeLine, Frederick, MD, Cat #LL-0025) in T75 flask for 3 to 4 days from cryopreserved vial, before the cells were seeded to assay plates after 90% confluence. PRPTEC cells were plated at a density of 5×10^3 cells per well in collagen coated 96-well plate with a final volume of […] per well. On next day, the compound was added to cell plates directly using HP D300 Dispenser (Hewlett-Packard, Palo Alto, CA) with program starting at 200 fold lower than the compound stock concentration, and 1:3 fold dilution in duplicates with constant amount of DMSO equal to 0.5%. After 5-day incubation, culture medium was removed, cell viability was measured by addition of […] per well of CellTiter Glo viability reagent (Promega, Madison, WI, Cat #G7573) and the luminescence signal was quantified on a Luminescence plate reader (Perkin-Elmer, Waltham, MA).

Series [1] can be described thus: Thermodynamic solubility assay. The settings on record: thermodynamic from solid, room temperature, four days. The series is classed as physicochemical. The procedure: Excess solid compound was used to saturate aqueous samples of the compounds. The tubes were placed on an agitator set at 1000 rpm and remained under constant agitation for four days. Following agitation, it was confirmed that excess solids were present in all tubes. The tubes were centrifuged at 10,000 rpm for 5 minutes to remove excess solids and the supernatant was transferred to a new vial. Concentration analysis was determined by UPLC and quantified against internal standards.

Where [2] appears, read: pH 7, aqueous buffer, phosphate buffered saline solution, read-out: pH 7 Solubility.
Where [3] appears, read: simulated gastric fluid, 10 mM hydrochloric acid (pH 2.0), read-out: pH 2 Solubility.

As a reminder, the EC50 is the concentration giving half of the maximal effect. What is called CC50 is the concentration that lowers cell viability or growth by half. Lower therefore signals greater toxicity to the cells.

In brackets after ≈: the same amount, converted by molar mass. Where two headings read alike, the source gives them in different places.

Take `CCOC(=O)[C@H](C)NP(=O)(OC[C@@]1(C#N)O[C@@H](c2ccc3c(N)ncnn23)[C@H](O)[C@@H]1O)Oc1ccccc1` (stereo partly shown) [Compound 1, reference compound]: the 50% effective concentration (EC50) in the series on DENV2 replicon was determined as 73.4 µM. This compound showed a CC50 at 5 days in the series “Huh-7 cytotoxicity assay” of over 44.4 µM.

Take `CCC(CC)COC(=O)[C@H](C)NP(=O)(OC[C@@]1(C#N)O[C@@H](c2ccc3c(N)ncnn23)[C@H](O)[C@@H]1O)Oc1ccccc1` (stereo partly shown) [Compound 2, reference compound]: the half-maximal effective concentration (EC50) is 0.186 µM in the series with RSV A strain A2 and 5.54 µM in the series on DENV2 replicon. Also, the CC50 at 5 days in the series “Huh-7 cytotoxicity assay” is over 44.4 µM; in “PRPT cytotoxicity assay”, 23.8 µM. Besides, the solubility thermodynamic at 4 days was 18 µg/mL (≈ 0.0299 mM) in series [1] (setting [2]) and 3720 µg/mL (≈ 6.17 mM) in series [1] (setting [3]).

As to `CCC(CC)COC(=O)[C@H](C)N[P@](=O)(OC[C@@]1(C#N)O[C@@H](c2ccc3c(N)ncnn23)[C@H](O)[C@@H]1O)Oc1ccccc1` [Compound 6, 2-ethylbutyl ((S)-(((2R,3S,4R,5S)-5-(4-aminopyrrolo[2,1-f][1,2,4]triazin-7-yl)-2-cyano-3,4-dihydroxytetrahydrofuran-2-yl)methoxy)(phenoxy)phosphoryl)alaninate], in the series on RSV A strain A2, the EC50 came to 0.11 µM. The half-maximal cytotoxic concentration (CC50) at 5 days in “Huh-7 cytotoxicity assay” turned out to be 17.2 µM; in “PRPT cytotoxicity assay”, 42.3 µM. Further, the values for the solubility thermodynamic at 4 days in series [1] (setting [2]) and in series [1] (setting [3]) were 16 µg/mL (≈ 0.0266 mM) and 3790 µg/mL (≈ 6.29 mM), respectively.

`C[C@H](N[P@](=O)(OC[C@@]1(C#N)O[C@@H](c2ccc3c(N)ncnn23)[C@H](O)[C@@H]1O)Oc1ccccc1)C(=O)OC1CCCCC1` [Formula I, cyclohexyl ((S)-(((2R,3S,4R,5S)-5-(4-aminopyrrolo[2,1-f][1,2,4]triazin-7-yl)-2-cyano-3,4-dihydroxytetrahydrofuran-2-yl)methoxy)(phenoxy)phosphoryl)-L-alaninate]: the “times more potent relative to compound 2, RSV HAE” value with RSV A strain A2 (EC50 ratio vs compound 2) was “about 8.1 times”. The values for the half-maximal effective concentration (EC50) with RSV A strain A2 and in the series on DENV2 replicon were 0.023 µM and 2.94 µM, respectively. For the same compound, in the series with DENV2 replicon (EC50 ratio vs compound 1), the “times more potent than compound 1, DENV huh7 Rep” value was “about 25.0 times”. In addition, in the series with DENV2 replicon (EC50 ratio vs compound 2), the “times more potent compared to compound 2, DENV huh7 Rep” value is given as “about 1.9 times”. In addition, the 50% cytotoxic concentration (CC50) at 5 days in the series “Huh-7 cytotoxicity assay” is over 88.9 µM; in “PRPT cytotoxicity assay”, over 84.4 µM. Also, the solubility thermodynamic at 4 days in series [1] (setting [2]) was 131 µg/mL; in series [1] (setting [3]), 4120 µg/mL.
